Experimental findings from patent US20150113681A1, “COMPOSITION AND METHOD FOR ENHANCING PLANT TRANSFORMATION” (SYNGENTA PARTICIPATIONS AG, priority 2013, published 2015) are described below.

Some results are limits rather than exact numbers.

The test system of one assay is sugarcane callus. The assay is described as follows: Sugarcane transformation, glyphosate/EPSPS selection with differing sucrose levels in selection media. The format is cell-based, sugarcane (Saccharum). On the procedure:
The method of the present invention includes embryogenic responses initiated and/or cultures established from sugar cane young leave rolls by culturing on callus induction medium. Established embryogenic cultures were weighted, and then inoculated and co-cultivated with the Agrobacterium tumefaciens strain EHA101 (Agrobacterium) containing the desired vector construction. Agrobacterium was cultured from glycerol stocks on solid YPC medium (100 mg/L spectinomycin and any other appropriate antibiotic) for about two days at 28° C. Agrobacterium is re-suspended in liquid MS-D2 medium. The Agrobacterium culture was diluted to an OD600 of 0.3-0.4 and acetosyringone is added to a final concentration of 400 uM. Acetosyringone was added before mixing the solution with the sugar cane cultures to induce Agrobacterium for DNA transfer to the plant cells. For inoculation, the cultures were immersed in the bacterial suspension. The liquid bacterial suspension is removed and the inoculated cultures were placed on empty plate for co-cultivation and incubated at 22° C. for two days. The cultures were then transferred to callus induction medium with Ticarcillin (400 mg/liter) to inhibit the growth of Agrobacterium and cultured for 4-10 days at 28° C. in dark. Referring to Table 3 below, for constructs utilizing the EPSPS selectable marker gene, cultures are transferred to selection S1 medium containing glyphosate as the selection agent and 400 mg/liter Ticarcillin and cultured for 3-4 weeks in the dark. For different treatments, the concentration of sucrose varied from 0 to 30 g/l and glyphosate level varied from 0.1 to 5 mM. […] Resistant colonies were then transferred to regeneration medium, and grown in the dark for 7 days, and then moved to the light growth room for 14 days. Regenerated shoots were transferred Rooting media for 3-4 weeks and then moved to the greenhouse when they are large enough and have adequate roots. Plants are transplanted to soil in the greenhouse (To generation), and grown to maturity.

Assay [1] concerns maize immature embryos. Put plainly: Maize transformation, bialaphos/PAT selection with differing sucrose levels in selection media. It counts as cell-based, Zea mays (corn). How it is done: (§1) Transformation of immature maize embryos is performed essentially as described in Negrotto et al., (2000) Plant Cell Reports 19: 798-803. Various media constituents described therein can be substituted. For example, the selectable marker gene and the selection agent can be modified, as in the examples below.
(§2) The genes used for transformation are cloned into a vector suitable for maize transformation as described above. Vectors used contain the either the PAT gene or the EPSPS gene as a selectable marker. PAT confers resistance to bialaphose, and EPSPS confers resistance to glyphosate.
(§3) Preparation of Agrobacterium tumefaciens: Agrobacterium strain LBA4404 (pSB1) containing the plant transformation plasmid is grown on YPC (yeast extract (5 g/L), peptone (10 g/L), NaCl (5 g/L), CaCl2.2H2O (1 g/L), 15 g/l agar, pH 6.8) solid medium for 2 to 4 days at 28° C. Approximately 0.8×10^9 Agrobacteria are suspended in inoculation medium supplemented with 100 μM acetosyringone (As) Bacteria are pre-induced in this medium for about 20 to 240 minutes.
(§4) Inoculation: Immature embryos from are excised from 8-12 day old ears after pollination. The isolated mixture of endosperms with immature embryos are suspended in the inoculation medium and poured through a 1500 um sieve after shaking. The immature embryos are captured on a 380 um sieve after pouring the suspension through. Immature embryos are gently removed from the sieve and suspended in Agrobacterium suspension on co-cultivation medium using a sterile scalpel blade after 5 min 45° C. heat shock. The immature embryo suspension is spread evenly on the co-cultivation medium and the excess Agrobacterium suspension is removed using a sterile transfer pipette and filter papers. The immature embryos are then spaced and flipped with round scutellum side up and then cultured in the dark for two to three days. Subsequently, between 20 and 45 embryos per petri plate are transferred to the medium AW5Dicamba100Ti and cultured in the dark for 28° C. for 10-14 days for callus induction.
Following co-cultivation and callus induction, the transformed calli are step-wise selected on MS medium or MS medium containing alternating concentrations of sucrose (5, 10 and 20, g/l) and bialaphos (5 and 7.5 mg/l) as indicated in Table 1. The controls comprise calli selected on MS medium supplemented with 20 g/l sucrose and 5 or 7.5 mg/l bialaphos for 4 to 6 weeks at 2 to 3 week intervals.
In a first selection period referred to in Table 1 as 51, about 10-20 calli are transferred from callus induction medium comprising 30 g/L sucrose onto 51 medium MS medium contained 5 g/l sucrose and 7.5 mg/l bialaphos and cultured for approximately 2 weeks at 28° C. in the dark. Each callus was originated from an immature embryo. For the second selection period, referred to in Table 1 as S2, about 9 to 10 calli of 51 are transferred to each plate containing S2 medium comprising 10 g/l sucrose and 7.5 mg/l bialaphose and then cultured for approximately 2 weeks at 28° C. in dark. For the third selection period referred to as S3, 9 to 10 calli are transferred from each S2 plate to S3 medium contained 20 g/l sucrose and 5 mg/l bialaphos and cultured for approximately 2 weeks at 28° C. in dark.
In another embodiment of the invention, in the first selection period S1 about 10 to 20 calli from each plate were transferred from callus induction medium comprising 30 g/L sucrose onto S1 medium containing 10 g/L of sucrose and 7.5 mg/l bialaphos and cultured for approximately 3 weeks at 28° C. in the dark. Each callus was originated from an immature embryo. 9 to 10 calli per plate were transferred from the S1 medium to S3 medium containing 20 g/L of sucrose and cultured for 2 weeks at 28° C. in dark. […]

Assay [2] deals with maize immature embryos. The assay is described as follows: Maize transformation, glyphosate/EPSPS selection with differing sucrose levels in selection media. It counts as cell-based, Zea mays (corn). To be noted: glyphosate selection. On the procedure:
as §1, §2, §3, §4
Following co-cultivation and callus induction, the transformed calli are step-wisely selected on MS medium or MS medium contained differing concentrations of sucrose (5, 10 and 20, g/l) and glyphosate (2 mg/l) as indicated in Table 2.
In one embodiment of the present invention, in an incubation selection period referred to in Table 2 as S1, 10-20 calli from callus induction medium were transferred onto selection medium S1 and cultured for approximately 2 weeks at 28° C. in the dark. Each callus is originated from an immature embryo.
For the selection period referred to as S2, about 9 to 10 calli cultured in selection step S1 were transferred to each plate containing selection medium S2 and then cultured for approximately 2 weeks at 28° C. in dark.
For the selection period referred to as S3, about 9 to 10 calli cultured in selection period S2 were transferred to selection medium of selection period S3 containing 20 g/l sucrose and 2 mM glyphosate. and cultured for approximately 2 weeks at 28° C. in the dark.
In another embodiment and referring to Table 2, about 10 to 20 calli per plate from callus induction medium were transferred onto selection medium of selection period S1. and cultured for approximately 2-3 weeks at 28° C. in the dark. Each callus was originated from an immature embryo. About 9 to 10 calli per plates were transferred to selection medium of selection period S2. and cultured for approximately 2 weeks at 28° C. in the dark.
Regeneration of Transformed Plants: Glyphosate-resistant embryogenic callus were selected under dissecting microscope and 4 embryogenic calli per plate were transferred to regeneration medium. and cultured for approximately 2 weeks at 28° C. in the dark. The cultures were subsequently transferred to a light room for 14 days at 25° C. with a 16 hour photoperiod. […]

Setting [3] is: control, 20 g/L sucrose, bialaphos selection.

With `OC[C@H]1O[C@@](CO)(O[C@H]2O[C@H](CO)[C@@H](O)[C@H](O)[C@H]2O)[C@@H](O)[C@@H]1O` [sucrose], the transformation frequency is reported as more than 7 % per gram fresh tissue in the assay on sugarcane callus (altering sucrose level and adjusting glyphosate concentration in step-wise selection); 2.4 % per gram of fresh tissues in the assay on sugarcane callus (sucrose concentration reduced to 5 g/l in selection medium); “improved” in the assay on sugarcane callus (sucrose concentration reduced to 10 and 15 g/l); 23.5% with maize immature embryos [1] (5 g/L sucrose in bialaphos selection media, first round of selection (S1)); 16.9% in the assay with maize immature embryos [1] (10 g/L sucrose in bialaphos selection media, first round of selection (S1)); 7.6% in the assay with maize immature embryos [1] (setting [3]). Moreover, the “recovery of transgenic plants” value in the assay with sugarcane callus (standard control, MS medium with 30 g/l sucrose and 3 mM glyphosate) is “no transgenic plants were recovered”. The regeneration frequency entry is recorded as “more than 65%” with maize immature embryos [1] (5 and 10 g/L sucrose in S1 bialaphos selection); 37.4% with maize immature embryos [1] (setting [3]); 87.4% in the assay on maize immature embryos [2] (sucrose 5 g/L in S2 followed by 20 g/L in S3); 86.4% in the assay with maize immature embryos [2] (sucrose 10 g/L in S2 followed by 20 g/L in S3); 7.9% in the assay with maize immature embryos [2] (negative control, sucrose 20 g/L). The “transformation frequency increase compared to the control” value in the assay with maize immature embryos [1] (5 g/L sucrose in S1 bialaphos selection vs 20 g/L control) amounted to 3.1 fold; with maize immature embryos [1] (10 g/L sucrose in S1 bialaphos selection vs 20 g/L control), 2.2 fold. The escape rate in the assay on maize immature embryos [1] (5 g/L sucrose, bialaphos selection) is 2.4%; in the assay on maize immature embryos [1] (setting [3]), 11.8%. Further, in the assay with maize immature embryos [2] (sucrose 5 g/L in second round (S2) followed by 20 g/L in third round (S3)), the “frequency of independent stable transgenic events (transformation frequency)” value is listed as 29.5%. Besides, the “frequency of independent stable transgenic events” value in the assay with maize immature embryos [2] (sucrose 10 g/L in second round (S2) followed by 20 g/L in third round (S3)) is given as 18.3%; with maize immature embryos [2] (negative control, standard sucrose concentration 20 g/L) it was 4.8%.
